Results as given in patent US7407953B2, “Wound healing” (Photopharmica Limited, priority 2007, dated 2008).
Values joined by “and” are separate entries in the source; they are usually repeats but may differ in a detail not shown here. Identical values can stand only once.

Key:
[1] = test system: full thickness wound in flank skin of diabetic (db/db) mice; assay: Wound healing in spontaneous diabetic (db/db) mice, PDT; assay type: in vivo, mice (c57BLKs/Bom db/db)
Source text: When wounds are created on (db/db) diabetic mice the wounds heal more slowly compared to the non diabetic mice. This delayed healing may be caused by a lack of vasculature to feed the wound. The delayed healing model is representative of a chronic wound, and wound healing effects of drugs can be more closely monitored and more easily measured.
18 animals were included in this study. 6 control non diabetic mice (db/+), 6 control diabetic (db/db) mice and 6 (db/db) PDT treated diabetic mice.
The 3,7-bis(N,N-dibutylamino)phenothiazin-5-ium bromide was formulated in ethanol and Unguentum M as described in Example 2 below at a concentration of 0.266 mg/mL.
On day 0, the animals were anaesthetised and a single standardised full thickness wound (7.5 mm×7.5 mm) was created in the flank skin of each experimental animal. Wounds were then dressed with a 1.5×1.5 cm pad of encapsulated gauze moistened with a fixed volume of sterile saline solution. […]
Image Pro image analysis software (version 4.1.0.0, obtained from Media Cybernetics, USA) was used to calculate wound closure from wound images in each of the experimental groups over time. For each wound at each time point—open wound area was measured and expressed in terms of % wound area relative to day 4 (treatment day).

[2] = test system: full thickness wound in flank skin of Wistar rat; assay: Wound healing in the Wistar rat, no light; assay type: in vivo; settings: for % Wound area remaining, no light, 2 days post treatment / % Wound area remaining, no light, 4 days post treatment / % Wound area remaining, no light, 6 days post treatment: 100 mg topical, not illuminated
Protocol: On day 0, animals were anaesthetised and a single standardised full thickness wound (7.5 mm×7.5 mm) was created in the flank skin of each experimental animal. Wounds were dressed with a 1.5×1.5 cm pad of encapsulated gauze moistened with a fixed volume of sterile saline.
Wounds were allowed to heal without intervention for a period of 4 days, other than the replacement of saline moistened gauze and film dressings, as required.
On day 4 standard secondary dressings were removed. 100 mg of 100 μM or 500 μM 3,7-bis(N,N-dibutylamino)phenothiazin-5-ium bromide cream was applied to the wound. The wounds were not illuminated. The area of the wounds were measured prior to treatment (day 4) and on day 6, 8 and 10.

[3] = test system: full-thickness excisional wounds in flank skin of Wistar rats; assay: Closure of full thickness excisional wounds in Wistar rat, PDT; assay type: in vivo
Protocol: 3,7-bis(N,N-dibutylamino)phenothiazin-5-ium bromide was solubilised in ethanol to give a concentration of 10 mg/ml. This was diluted in Unguentum M: 80% water, to give creams with final concentrations of 100 μM or 500 μM of 3,7-bis(N,N-dibutylamino)phenothiazin-5-ium bromide.
The above creams were used on the closure of full thickness excisional wounds in Wistar rats with exposure to light. The effect of topical application of 50 mg of 3,7-bis(N,N-dibutylamino)phenothiazin-5-ium bromide (at concentrations of 100 μM and 500 μM) followed by photo-activation with 688 nm laser light was investigated and compared to that of application of the drug delivery vehicle (Unguentum M) followed by 688 nm photo-activation. The light dose used was 50 J/cm^2. Wound repair was measured in terms of the closure of standardised full-thickness excisional wounds created in the flank skin of adult Wistar rats.

[4] = test system: chronic non healing leg ulcers or diabetic foot ulcers; assay: Clinical study, PDT on wound healing of chronic ulcers; assay type: in vivo, patients; settings: 500 μM cream topical
Source text: After ethical review board approval and written informed participant consents were obtained, patients were recruited, provided they satisfied the ethically approved inclusion criteria. MHRA approval had been obtained.
Patients were recruited who had chronic non healing leg ulcers or diabetic foot ulcers. These patients had shown little or no wound healing for a number of weeks prior to treatment.
For the treatment 3,7-bis(N,N-dibutylamino)phenothiazin-5-ium bromide, formulated in ethanol and Unguentum M as described in Example 2 above at 500 μM, was applied topically to the ulcer surface and surrounding ulcer margin (5 mm) giving a cream depth of up to 5 mm. The ulcer was then left, not occluded, but in minimal lighting, for 15 minutes. After this pre-incubation time, the cream was rubbed into the ulcer so underlying skin/tissue could be seen through the cream. If this was not possible excess cream was removed. The ulcer was then illuminated using a broad band CureLight lamp (obtainable from PhotoCure) at a fluence rate of 20-50 mW/cm^2 giving a total light dose of 50 J/cm^2.
The ulcer area was measured pre treatment and after 1 week and one month.

chronic leg ulcers = assay: Phase IIa randomised, placebo controlled trial, PDT in chronic leg ulcers; assay type: in vivo, patients; settings: 500 μM cream, 50 J/cm^2
Protocol: 16 patients with chronic leg ulcers were recruited for the study. All patients had ulcers that had been present for at least 3 months prior to treatment. After randomisation, 8 patients were treated with 3,7-bis(N,N-dibutylamino)phenothiazin-5-ium bromide PDT and 8 patients were treated with placebo. Ulcer area was measured before treatment and at 1 week, 1 month, 2 months and 3 months post treatment using a Visitrak system. Photographs were taken of the ulcers before treatment and at 24 h, 1 week, 1, 2 and 3 months post treatment.
Placebo cream was Unguentum Merck: water (1:2). 3,7-bis(N,N-dibutylamino)phenothiazin-5-ium bromide cream was 500 μM 3,7-bis(N,N-dibutylamino)phenothiazin-5-ium bromide in Unguentum Merck:water (1:2). For the treatment a 1 mm depth of cream was spread over the surface of the ulcer. The ulcer was then left, occluded under film, shielded from light for 15 minutes. At the end of the 15 minute incubation, excess cream was removed and the ulcer was illuminated using a CureLight 01 (obtainable from Photocure) at a light dose of 50 J/cm^2.

[5] = test system: rat skin flap reconstruction; settings: Kubler et al 1996; cited from earlier work
wounds = settings: literature conclusions (Parekh 1999, Lambrects 2005, Hamblin 2003, Belmont 1999); cited from earlier work
intimal hyperplasia = settings: local photodynamic action; Heckenkamp et al 2000; cited from earlier work
[6] = individual patients 1-5, 50 J/cm^2 broad band light

CCCCN(CCCC)c1ccc2nc3ccc(N(CCCC)CCCC)cc3[s+]c2c1.[Br-] [3,7-bis(N,N-dibutylamino)phenothiazin-5-ium bromide]
% wound area (open wound area relative to day 4, treatment day) ([1]; diabetic db/db mice, 500 μM in Unguentum M topical + 25 J/cm^2 688 nm light, 3 days post treatment, 6 animals): 46% | rate of wound healing ([1]; in combination with light, treated diabetic mice vs control diabetic mice): substantial increase in the rate of wound healing | % Wound area remaining, no light, 2 days post treatment ([2]; 100 μM cream): 62% | % Wound area remaining, no light, 4 days post treatment ([2]; 100 μM cream): 33% | % Wound area remaining, no light, 6 days post treatment ([2]; 100 μM cream): 25% | % Wound area remaining, no light, 2 days post treatment ([2]; 500 μM cream): 62% | % Wound area remaining, no light, 4 days post treatment ([2]; 500 μM cream): 30% | % Wound area remaining, no light, 6 days post treatment ([2]; 500 μM cream): 19% | wound healing, 500 μM vs 100 μM ([2]; no light): heal faster at a 500 μM concentration than at 100 μM | wound closure, light treatment vs compound alone ([3]; 100 μM cream, 50 mg topical, 688 nm laser light 50 J/cm^2): closed more rapidly | wound closure, higher dose vs lower dose ([3]; 500 μM cream vs 100 μM cream): closed more rapidly | adverse tissue responses, gross examination of wound and wound margin tissue ([3]; any treatment regime of the study): no adverse tissue responses were noted | area of the treated ulcers following the photodynamic treatment ([4]; 50 J/cm^2): reduction in the area of the treated ulcers | Percentage reduction in ulcer area at 1 month compared to pre treatment [4, 6]: 13% and 8% and 10% and 50% and 34% | Percentage reduction in ulcer area at 1 week compared to pre treatment [4, 6]: 8% and 14% and 0% and 23% | healing as measured by the size of the wound, compared to placebo (chronic leg ulcers): Better healing | patients showing complete wound healing at 2 months (chronic leg ulcers; 2 out of 8 patients, placebo: none): 25% | patients showing complete wound healing at 3 months (chronic leg ulcers; 4 out of 8 patients, placebo: 1 out of 8 (12.5%)): 50%

Photofrin
effect on wound healing [5]: delayed wound healing | effect of PDT on wound healing (wounds): delay wound healing

CN(C)c1ccc2nc3ccc(=[N+](C)C)cc-3sc2c1 [methylene blue]
effect on intimal hyperplasia (intimal hyperplasia): retarding effect on intimal hyperplasia

Poly-lysine-chlorin e6
effect of PDT on wound healing (wounds): did not accelerate wound healing
